The values below are quoted from earlier work in patent US7265248B1, “Compositions and methods for the treatment of malaria” (Technology Innovations, LLC, priority 2005, dated 2007).

Where two headings read alike, the source gives them in different places.

In one series the target is alpha/beta III dimer (Bos taurus, UniProt Q2T9S0). Conditions: compared with alpha/beta II and alpha/beta IV dimers.
Assay in series [1]: not given
This is another data set of the same source.

For series [2] the following is noted: in vivo.
Another series addresses T1, alpha/beta II (Bos taurus, UniProt Q6B856).
T1 construct: microtubules were prepared from bovine cerebra by the method of Fellous et al and tubulin was purified therefrom by phosphocellulose chromatography; from tissue; host or cells: bovine cerebra (brain)
Conditions: compared with unfractionated tubulin.

A further series addresses T2, alpha/beta III (Bos taurus, UniProt Q2T9S0).
T2 construct: microtubules were prepared from bovine cerebra by the method of Fellous et al and tubulin was purified therefrom by phosphocellulose chromatography; from tissue; host or cells: bovine cerebra (brain)
Conditions: compared with unfractionated tubulin.

In a further series the target is T3, alpha/beta IV (Bos taurus, UniProt Q3ZBU7).
T3 construct: microtubules were prepared from bovine cerebra by the method of Fellous et al and tubulin was purified therefrom by phosphocellulose chromatography; from tissue; host or cells: bovine cerebra (brain)
Conditions: compared with unfractionated tubulin, alpha/beta II, alpha/beta III.

Chain of alpha/beta III dimer (Q2T9S0 whole entry): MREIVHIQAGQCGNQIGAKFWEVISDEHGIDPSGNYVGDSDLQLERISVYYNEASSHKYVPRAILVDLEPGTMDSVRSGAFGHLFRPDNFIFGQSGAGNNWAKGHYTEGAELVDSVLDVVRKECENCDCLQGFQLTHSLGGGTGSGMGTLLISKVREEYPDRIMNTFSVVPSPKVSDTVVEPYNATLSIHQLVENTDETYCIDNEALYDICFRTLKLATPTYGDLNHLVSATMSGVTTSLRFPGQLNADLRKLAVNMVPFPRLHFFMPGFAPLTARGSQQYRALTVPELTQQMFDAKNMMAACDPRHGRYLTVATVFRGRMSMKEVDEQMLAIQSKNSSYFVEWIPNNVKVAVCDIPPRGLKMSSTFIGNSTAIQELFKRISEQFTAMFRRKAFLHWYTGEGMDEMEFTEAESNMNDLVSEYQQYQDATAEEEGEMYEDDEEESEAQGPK
Chain of alpha/beta III dimer (P81947 whole entry, further chain): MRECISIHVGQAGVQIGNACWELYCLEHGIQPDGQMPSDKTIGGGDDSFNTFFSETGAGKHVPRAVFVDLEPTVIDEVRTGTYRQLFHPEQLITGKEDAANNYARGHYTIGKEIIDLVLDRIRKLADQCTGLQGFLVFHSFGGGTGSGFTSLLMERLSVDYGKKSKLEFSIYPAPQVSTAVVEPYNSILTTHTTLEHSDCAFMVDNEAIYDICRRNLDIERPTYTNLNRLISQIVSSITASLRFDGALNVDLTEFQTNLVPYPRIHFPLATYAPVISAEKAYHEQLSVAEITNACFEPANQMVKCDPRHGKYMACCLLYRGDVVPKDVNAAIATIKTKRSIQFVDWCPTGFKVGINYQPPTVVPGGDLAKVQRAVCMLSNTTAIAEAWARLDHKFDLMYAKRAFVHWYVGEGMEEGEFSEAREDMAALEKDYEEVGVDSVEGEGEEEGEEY
T2 sequence (Q2T9S0 whole entry): as the sequence (Q2T9S0 whole entry) above
T2 sequence (P81947 whole entry, further chain): as the sequence (P81947 whole entry, further chain) above
T3 sequence (P81947 whole entry): as the sequence (P81947 whole entry, further chain) above
T3 sequence (Q3ZBU7 whole entry): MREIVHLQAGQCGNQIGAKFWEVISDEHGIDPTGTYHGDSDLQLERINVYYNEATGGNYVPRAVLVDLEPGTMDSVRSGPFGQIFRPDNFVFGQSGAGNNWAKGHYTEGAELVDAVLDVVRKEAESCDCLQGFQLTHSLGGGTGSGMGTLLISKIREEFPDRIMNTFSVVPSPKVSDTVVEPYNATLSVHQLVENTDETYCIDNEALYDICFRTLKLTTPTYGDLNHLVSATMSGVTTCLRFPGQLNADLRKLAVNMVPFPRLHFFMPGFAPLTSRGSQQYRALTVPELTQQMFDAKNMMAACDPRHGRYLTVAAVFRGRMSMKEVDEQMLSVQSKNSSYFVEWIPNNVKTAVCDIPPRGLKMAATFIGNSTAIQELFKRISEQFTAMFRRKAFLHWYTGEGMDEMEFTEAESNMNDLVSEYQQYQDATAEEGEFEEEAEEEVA
T1 sequence (P81947 whole entry): as the sequence (P81947 whole entry, further chain) above
T1 sequence (Q6B856 whole entry): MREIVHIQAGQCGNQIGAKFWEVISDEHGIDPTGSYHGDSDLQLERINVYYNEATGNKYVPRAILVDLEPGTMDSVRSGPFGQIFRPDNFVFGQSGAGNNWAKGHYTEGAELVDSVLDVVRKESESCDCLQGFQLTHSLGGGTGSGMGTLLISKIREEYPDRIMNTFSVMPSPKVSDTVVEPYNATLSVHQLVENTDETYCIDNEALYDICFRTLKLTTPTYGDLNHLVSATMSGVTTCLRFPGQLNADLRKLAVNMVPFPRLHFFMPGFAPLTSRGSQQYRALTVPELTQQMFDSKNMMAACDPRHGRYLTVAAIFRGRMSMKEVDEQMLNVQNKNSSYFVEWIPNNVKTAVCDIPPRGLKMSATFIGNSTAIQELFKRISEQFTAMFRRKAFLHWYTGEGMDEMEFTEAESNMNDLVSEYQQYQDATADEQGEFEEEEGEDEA

In the case of `CC(=O)O[C@H]1C(=O)[C@@]2(C)[C@H]([C@H](OC(=O)c3ccccc3)[C@]3(O)C[C@H](OC(=O)[C@H](O)[C@@H](NC(=O)c4ccccc4)c4ccccc4)C(C)=C1C3(C)C)[C@]1(OC(C)=O)CO[C@@H]1C[C@@H]2O` [paclitaxel], the interaction with ligand entry on alpha/beta III dimer is listed as “much less strongly”.

For the compound `OC(c1cc(C(F)(F)F)nc2c(C(F)(F)F)cccc12)C1CCCCN1` (stereo not shown) [mefloquine], the volume of distribution entry (in words) is reported as “several times the volume of body water”. For the same compound, the protein binding in series [1] is recorded as about 98%.

Regarding `CCc1nc(N)nc(N)c1-c1ccc(Cl)cc1` [pyrimethamine], the half life (in vivo) was 80 to 95 h. Further, the side effects entry in series [2] is given as “blood dyscrasias”.

As to `COc1cc(OC)c(Cl)c(-n2c(-c3ccccc3)cc(=O)c(C)c2-c2ccc(F)cc2)c1` [IKP-104], the “apparent dissociation constant for the high-affinity site (Kd1)” value is recorded as “lower than that of unfractionated tubulin” at alpha/beta II; “lower than that of unfractionated tubulin” at alpha/beta III; “greater than those of unfractionated tubulin, alpha/beta II, or alpha/beta III” on alpha/beta IV.

As to `COc1cc(NC(C)CCCN)c2ncccc2c1` (stereo not shown) [primaquine], in series [2], the side effects result is “blood dyscrasias”.

Turning to `CCN(CC)CCCC(C)Nc1ccnc2cc(Cl)ccc12` (stereo not shown) [chloroquine], the volume of distribution entry (in vivo) was “over 100 l/kg”. For the same compound, for the setting “in words”, the half life entry is listed as “days to weeks”. Also, in series [2], the side effects entry is “cardiovascular and CNS effects”.

As for `O=C1C(O)=C([C@H]2CC[C@H](c3ccc(Cl)cc3)CC2)C(=O)c2ccccc21` [atovaquone], the half life (in vivo) was 36 to 72 h. Also, the pharmacokinetic profile entry (in words) is “double peaking”. Besides, the protein binding in series [1] is 99%. Further, the side effects entry in series [2] is “rash, vomiting, diarrhea, fever and headache”.
